Among the data in patent US8063225B2, “Tricyclic compound derivatives useful in the treatment of neoplastic diseases, inflammatory disorders and immunomodulatory disorders” (Chembridge Corporation, priority 2006, dated 2011) are IC50 values, retold here.

Usually IC50 stands for the midpoint of a concentration-inhibition curve.

The subject of one experiment is K562. In words: Cell proliferation inhibition, Cell Titer-Glo, K562. Type of experiment: cell-based. To be noted: Homo sapiens; cell proliferation assay, K562 cells. The text has this:
(§1) IGF1R and other tyrosine kinase inhibitors can inhibit the proliferation of certain cancer cell lines indicating their possible therapeutic utility for treating the corresponding cancer types. Cancer cell lines of interest and control normal lines, including CHO, HEK293, BA/F3, COLO205, PC3, DU145, MCF7, Panc1, ACHN, Hep G2, H460, K562, TT, U87-MG, CAOV-3, SK-MEL5, Karpas 299 and human multiple myeloma cell lines H929, MM1s, MM1r, UTMC2, CPM2, KMS11, My5, KMS12PE, My7, JJN3, KMS18, U266, SKMM2, RPMI-8226 are plated in white, clear-bottomed 384-well cell culture plates at 2500-5000 cells per well and supplied with dilutions of tested compounds After a desired period of time (typically 3 days), the number of viable cells is quantitated by using Cell Titer-Glo Luminescent Cell Viability Assay (Promega), a cell proliferation assay system based on detection of total amount of ATP present as a measure of cell metabolic activity. The plated cells are mixed with the Cell Titer-Glo developing reagent and counted in a luminescence multiwell plate reader according to the standard manufacturer's protocol to generate IC50 curves for cell proliferation inhibition. Results are typically reported as percent of growth (% viability =(OD72h(compound)−ODday0))/(OD72h(no compound)−ODday0). Alternatively, viable cells are quantitated by using the conventional colorimetric MTT assay. The MTT assay is based on the cleavage of the yellow tetrazolium salt MTT to purple formazan crystal by metabolic active cells. The formazan is then solubilized, and the concentration determined by optical density at 570 nm. The cells plated and incubated with a compound as described above are supplemented with the solution of MTT and incubated for 2-3 hours. The growth medium is removed and dimethyl sulfoxide is added into each well to dissolve the formazan. The absorbance is measured on an ELISA plate reader with a test wavelength of 570 nm and a background subtraction wavelength of 630 nm to obtain sample signal (OD570-OD630). […] The results are reported in terms of IC50 value for a particular compound and a cell line in the standard 3-day proliferation assay using Cell Titer-Glo. […] The results are reported in terms of IC50 value for a particular compound and a cell line in the standard 3-day proliferation assay using MTT assay.
(In general: In ATP-based viability assays light output follows the ATP content of the culture.)

Another experiment concerns the target T1, IGF1R tyrosine kinase (Homo sapiens, UniProt P08069).
T1 construct: 6×His- or GST-tagged kinase domain fragments of the corresponding RTKs expressed in baculovirus system; host or cells: baculovirus system
In words: IGF1R tyrosine kinase assay (Kinase-Glo ATP depletion or PT66/PT100 AlphaScreen). To be noted: biochemical tyrosine kinase assay. The procedure:
(§2) To determine inhibition of several tyrosine kinases, such as IGF1R, InsR, Alk, TrkA and Jak2, kinase assays are conducted using either Kinase-Glo (Promega) or AlphaScreen (PerkinElmer) kinase assay platforms. The Kinase-Glo Luminescent Kinase Assay is a homogeneous method for measuring kinase activity by determining the amount of ATP remaining after a kinase reaction. The luminescent signal is proportional to the amount of ATP and inversely proportional to the amount of kinase activity. Tyrosine kinase PT66 AlphaScreen Assay is a high-sensitivity homogeneous, anti-phosphotyrosine antibody-mediated luminescent proximity method measuring, incorporation of phosphate in synthetic poly(Glu-Tyr) substrate. The kinase preparations used consist of purified recombinant, 6×His- or GST-tagged kinase domain fragments of the corresponding RTKs expressed in baculovirus system.
(§3) The IGF1R tyrosine kinase is assayed in Kinase-Glo ATP depletion assay using the synthetic polymer poly(Glu-Tyr, 4:1) (Sigma Chemicals) as a phosphoacceptor substrate. Each reaction mixture consists of a total volume of 10 μl and contains 40 ng of the enzyme, 5 μg of poly(Glu-Tyr), 10 μM of ATP and variable concentrations of test compounds. The mixtures also contain 50 mM Tris-HCl, pH 7.5; 5 mM MgCl2; 5 mM MnCl2; 2 mM DTT and 0.01% Tween 20. The reaction mixtures are incubated at 37° C. for 60 minutes and residual concentration of ATP in the mixture is determined by adding luciferase-containing Kinase-Glo (Promega) development reagent and counting luminescence levels using Fusion Universal Microplate Analyzer (PerkinElmer). Tested compounds are dissolved in dimethyl sulfoxide to a stock concentration of 10 mM and are typically evaluated in the assay at eight concentrations in 1 nM to 20 μM range, each in quadruplicate. […] IC50 values are derived by non-linear regression analysis using Prism 3.0 software (Graphpad Software). Other tyrosine kinases are assayed according to the same protocol after titrating amount of the enzyme to provide optimal signal-to-noise ratio and no more than 30% of total ATP consumption in the reaction conditions used.
(§4) The IGF1R tyrosine kinase is assayed in Phosphotyrosine (PT66 or PT 100) AlphaScreen chemiluminescent assay (PerkinElmer) according to the manufacturerer's recommendations. Each kinase reaction mixture consists of a total volume of 15 μl and contains 0.1-1 ng of the enzyme, 7 ng of biotinylated poly(Glu-Tyr) (Cis-Bio), 10 μM of ATP and variable concentrations of test compounds. The mixtures also contain 50 mM Tris-HCl, pH 7.5; 5 mM MgCl2; 5 mM MnCl2; 2 mM DTT and 0.01% Tween 20. The reaction mixtures are incubated at room temperature for 30 minutes. Ten (10) μl of the mixture of […] and donor beads (as supplied by the manufacturer) is then added to the reaction and the incubation is continued for an additional 60 minutes.

A further experiment concerns Ba/F3. In words: Cell proliferation inhibition, Cell Titer-Glo, Ba/F3. To be noted: Mus musculus, BaF3; cell proliferation assay, Ba/F3 cells. Format: cell-based.
Description: as §1

For the next experiment, the target named is T2, Alk (Homo sapiens, UniProt Q9UM73).
T2 construct: 6×His- or GST-tagged kinase domain fragments of the corresponding RTKs expressed in baculovirus system; host or cells: baculovirus system
Kind of experiment: Tyrosine kinase assay (Kinase-Glo or AlphaScreen), Alk. To be noted: biochemical tyrosine kinase assay. How it is done: as §2, §3, §4
Background: Kinase-Glo reads ATP consumption through a luciferase reaction.

A further experiment has as its target T3, Jak2 (Homo sapiens, UniProt O60674).
T3 construct: 6×His- or GST-tagged kinase domain fragments of the corresponding RTKs expressed in baculovirus system; host or cells: baculovirus system
Kind of experiment: Tyrosine kinase assay (Kinase-Glo or AlphaScreen), Jak2. Conditions: biochemical tyrosine kinase assay. The procedure:
as §2, §3, §4

The target in another experiment is T4, InsR (Homo sapiens, UniProt P06213).
T4 construct: 6×His- or GST-tagged kinase domain fragments of the corresponding RTKs expressed in baculovirus system; host or cells: baculovirus system
Kind of experiment: Tyrosine kinase assay (Kinase-Glo or AlphaScreen), InsR. To be noted: biochemical tyrosine kinase assay. How it is done: as §2, §3, §4

In another experiment the test system is Karpas-299. Kind of experiment: Cell proliferation inhibition, Cell Titer-Glo, Karpas-299. Type of experiment: cell-based. Conditions: Homo sapiens; cell proliferation assay, Karpas-299 cells.
Description: as §1

T1 sequence (P08069 999-1274 limits assumed): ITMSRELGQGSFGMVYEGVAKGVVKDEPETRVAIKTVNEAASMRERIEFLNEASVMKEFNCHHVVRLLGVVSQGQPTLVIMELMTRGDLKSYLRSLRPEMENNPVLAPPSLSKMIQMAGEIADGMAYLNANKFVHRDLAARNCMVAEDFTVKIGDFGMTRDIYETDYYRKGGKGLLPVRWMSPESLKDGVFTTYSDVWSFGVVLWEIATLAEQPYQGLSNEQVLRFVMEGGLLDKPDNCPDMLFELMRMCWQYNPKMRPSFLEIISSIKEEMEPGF
T2 sequence (Q9UM73 1116-1392 limits assumed, species assumed): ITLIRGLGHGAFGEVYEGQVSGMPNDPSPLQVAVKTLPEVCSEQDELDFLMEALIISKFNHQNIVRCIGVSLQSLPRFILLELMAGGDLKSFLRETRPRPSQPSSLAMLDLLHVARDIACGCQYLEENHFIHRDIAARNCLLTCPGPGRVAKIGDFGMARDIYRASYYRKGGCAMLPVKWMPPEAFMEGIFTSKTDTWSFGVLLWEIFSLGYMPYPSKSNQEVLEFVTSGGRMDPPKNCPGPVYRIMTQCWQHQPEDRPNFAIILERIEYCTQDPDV
T3 sequence (O60674 849-1124 limits assumed, species assumed): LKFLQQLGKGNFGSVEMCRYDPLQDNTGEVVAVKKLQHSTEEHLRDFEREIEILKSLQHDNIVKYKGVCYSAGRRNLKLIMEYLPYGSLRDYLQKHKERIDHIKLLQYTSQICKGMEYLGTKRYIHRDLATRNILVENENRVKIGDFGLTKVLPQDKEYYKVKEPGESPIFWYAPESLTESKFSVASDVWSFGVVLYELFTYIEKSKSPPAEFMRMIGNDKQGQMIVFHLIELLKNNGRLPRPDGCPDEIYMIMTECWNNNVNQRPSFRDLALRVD
T4 sequence (P06213 1023-1298 limits assumed, species assumed): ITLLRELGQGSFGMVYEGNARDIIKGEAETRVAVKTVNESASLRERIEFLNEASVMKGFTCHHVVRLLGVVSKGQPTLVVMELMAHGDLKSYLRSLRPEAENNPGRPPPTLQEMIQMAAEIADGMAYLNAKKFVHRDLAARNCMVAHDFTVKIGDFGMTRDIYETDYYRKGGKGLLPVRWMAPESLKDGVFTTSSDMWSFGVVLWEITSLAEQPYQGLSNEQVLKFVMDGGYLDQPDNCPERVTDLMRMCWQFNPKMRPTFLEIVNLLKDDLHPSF

As to `CN1CCC(N2C(=O)c3cc4nc(-c5c(NC[C@@H](O)Cn6ccc7c(C#N)cccc76)cc[nH]c5=O)[nH]c4cc3C2=O)CC1` [compound 112], the concentration for half-maximal inhibition (IC50) is 5 to 15 µM in the experiment with K562; 0.5 to 5 µM against IGF1R tyrosine kinase; 5 to 15 µM with Ba/F3; 0.5 to 5 µM on Alk; 0.5 to 5 µM on Jak2; 0.5 to 5 µM at InsR. The same compound showed an IC50 with Karpas-299 of 0.5 to 5 µM.

Take `COc1ccc2c(ccn2C[C@H](O)CNc2cc[nH]c(=O)c2-c2nc3cc4c(cc3[nH]2)CN(C2CCN(C)CC2)C4=O)c1` [compound 170]: the IC50 is 5 to 15 µM on IGF1R tyrosine kinase, 5 to 15 µM against Alk, 0.5 to 5 µM against Jak2 and 0.5 to 5 µM on InsR.

With `COc1ccc2c(c1)cc(C)n2C[C@H](O)CNc1ccnc(O)c1-c1nc2cc3c(cc2[nH]1)C(=O)N(C1CCN(C)CC1)C3=O` [compound 100], the IC50 was 5 to 15 µM in the experiment with K562; 0.5 to 5 µM against IGF1R tyrosine kinase; over 15 µM with Ba/F3; under 0.5 µM against Alk; 0.5 to 5 µM at Jak2; 0.5 to 5 µM against InsR. Also, in the experiment with Karpas-299, the IC50 was 5 to 15 µM.

Turning to `O=C1c2cc3nc(-c4c(NC[C@@H](O)COc5c(F)ccc(Cl)c5F)cc[nH]c4=O)[nH]c3cc2C(=O)N1CC1CCN(CCO)CC1` [compound 120], the IC50 at IGF1R tyrosine kinase is under 0.5 µM; with Ba/F3, 0.5 to 5 µM; against Alk, 0.5 to 5 µM; on Jak2, 0.5 to 5 µM; against InsR, under 0.5 µM; in the experiment with Karpas-299, 0.5 to 5 µM.

As for `Cc1ccc(OC[C@H](O)CNc2cc[nH]c(=O)c2-c2nc3cc4c(cc3[nH]2)C(=O)N(CCCN2CCCC2)C4=O)c(C)c1` [compound 48], the IC50 against IGF1R tyrosine kinase was under 0.5 µM; in the experiment with Ba/F3, 0.5 to 5 µM; on Alk, 5 to 15 µM; against Jak2 it was 0.5 to 5 µM; at InsR it was under 0.5 µM; in the experiment with Karpas-299, 0.5 to 5 µM.

Turning to `O=C1c2cc3nc(-c4c(NC[C@@H](O)c5cccc(Cl)c5)cc[nH]c4=O)[nH]c3cc2C(=O)N1CCc1c[nH]cn1` [compound 9], the IC50 at IGF1R tyrosine kinase, against Alk, against Jak2 and against InsR was 0.5 to 5 µM throughout.

For the compound `O=C1c2cc3nc(-c4c(NC[C@@H](O)c5cccc(Cl)c5)cc[nH]c4=O)[nH]c3cc2C(=O)N1CC(O)CO` (some centres unmarked) [compound 46], the IC50 on IGF1R tyrosine kinase was under 0.5 µM; in the experiment with Ba/F3, 5 to 15 µM; against Alk it was over 15 µM; against Jak2, over 15 µM; against InsR it was 0.5 to 5 µM; in the experiment on Karpas-299, 5 to 15 µM.

Take `O=C1c2cc3nc(-c4c(NC[C@@H](O)c5cccc(Cl)c5)cc[nH]c4=O)[nH]c3cc2C(=O)N1CCc1cccnc1` [compound 27]: the IC50 on IGF1R tyrosine kinase, against Alk, on Jak2 and at InsR was over 15 µM throughout.

`Cc1c2c(cc3[nH]c(-c4c(NC[C@@H](O)COc5c(F)ccc(Cl)c5F)cc[nH]c4=O)nc13)C(=O)N(C1CCN(C)CC1)C2=O` [compound 122]: the IC50 against IGF1R tyrosine kinase was under 0.5 µM; with Ba/F3, over 15 µM; against Alk, 5 to 15 µM; on Jak2, 0.5 to 5 µM; at InsR, 0.5 to 5 µM; in the experiment on Karpas-299, over 15 µM.

For the compound `O=C1c2cc3nc(-c4c(NC[C@@H](O)c5cccc(Cl)c5)cc[nH]c4=O)[nH]c3cc2C(=O)N1CCCn1ccnc1` [compound 45], the IC50 against IGF1R tyrosine kinase was in the range of 0.5 to 5 µM; with Ba/F3, 5 to 15 µM; against Alk it was 0.5 to 5 µM; at Jak2, 0.5 to 5 µM; at InsR it was 0.5 to 5 µM; with Karpas-299, 5 to 15 µM.

For the compound `O=C1CCCN1CCCN1C(=O)c2cc3nc(-c4c(NC[C@@H](O)c5cccc(Cl)c5)cc[nH]c4=O)[nH]c3cc2C1=O` [compound 47], the IC50 at IGF1R tyrosine kinase was in the range of 0.5 to 5 µM; in the experiment on Ba/F3, 5 to 15 µM; on Alk, 5 to 15 µM; on Jak2, 0.5 to 5 µM; on InsR it was 0.5 to 5 µM; in the experiment with Karpas-299, 5 to 15 µM.

In the case of `COCCN1CCC(CN2C(=O)c3cc4nc(-c5c(NC[C@@H](O)c6cccc(Cl)c6)cc[nH]c5=O)[nH]c4cc3C2=O)CC1` [compound 24], the IC50 against IGF1R tyrosine kinase was under 0.5 µM; at Alk, 0.5 to 5 µM; on Jak2, 0.5 to 5 µM; on InsR, under 0.5 µM.

Regarding `O=C1c2cc3nc(-c4c(NC[C@@H](O)c5cccc(Cl)c5)cc[nH]c4=O)[nH]c3cc2C(=O)N1C(CO)CO` [compound 25], the IC50 is under 0.5 µM on IGF1R tyrosine kinase, 5 to 15 µM at Alk, under 0.5 µM on Jak2 and under 0.5 µM against InsR.

For the compound `Cc1c(Cl)cccc1OC[C@H](O)CNc1cc[nH]c(=O)c1-c1nc2cc3c(cc2[nH]1)C(=O)N(CCCN1CCCC1)C3=O` [compound 115], the IC50 at IGF1R tyrosine kinase is under 0.5 µM; with Ba/F3, over 15 µM; against Alk, 0.5 to 5 µM; at Jak2, 0.5 to 5 µM; on InsR, under 0.5 µM; in the experiment on Karpas-299, 5 to 15 µM.

Take `CN1CCC(N2C(=O)c3cc4nc(-c5c(NCC(O)c6ccncc6)cc[nH]c5=O)[nH]c4cc3C2=O)CC1` (centres unmarked) [compound 7]: the IC50 was 0.5 to 5 µM at IGF1R tyrosine kinase, over 15 µM against Alk, 0.5 to 5 µM on Jak2 and 5 to 15 µM against InsR.

In the case of `Cc1c(Cl)cccc1OC[C@H](O)CNc1cc[nH]c(=O)c1-c1nc2c(C)c3c(cc2[nH]1)C(=O)N(C1CCN(C)CC1)C3=O` [compound 121], the IC50 at IGF1R tyrosine kinase fell in the range of 0.5 to 5 µM; in the experiment on Ba/F3, 0.5 to 5 µM; against Alk, 0.5 to 5 µM; on Jak2, 0.5 to 5 µM; against InsR it was 0.5 to 5 µM; in the experiment on Karpas-299 it was 5 to 15 µM.

As for `COCCCN1C(=O)c2cc3nc(-c4c(NC[C@@H](O)COc5ccc(C)cc5C)cc[nH]c4=O)[nH]c3cc2C1=O` [compound 109], the IC50 against IGF1R tyrosine kinase was over 15 µM; in the experiment with Ba/F3 it was over 15 µM; against Alk, over 15 µM; on Jak2, over 15 µM; against InsR, over 15 µM; with Karpas-299 it was 0.5 to 5 µM.
